The conditions of data set [1]: 101.33 kPa, Liquid.
Data set [2] can be described thus: Boiling temperature at pressure P. The following applies: 101.33 kPa; Liquid; Distillation.
Data set [3] can be described thus: refractive index (Na D-line) (dimensionless). The following applies: 293.15 K; 101.33 kPa; Liquid; Standard Abbe refractometry.

Molecules are shown by their SMILES. ± gives the expanded uncertainty stated by the source.

With `CC(=O)O` [acetic acid], the mass density (usually mass per unit of volume) in data set [1] (298.15 K) was found to be 1044.3 ± 0.26 kg/m3. Also, in data set [2], the “Boiling temperature at pressure P” value was 117.70 ± 0.5 °C. Besides, in data set [3], the refractive index (usually a measure of how strongly the sample bends light) was determined as 1.3721 ± 0.0007.

Regarding `O=CO` [formic acid], in data set [1] (293.15 K), the mass density came to 1218.5 ± 2.5 kg/m3. Also, in data set [2], the “Boiling temperature at pressure P” value amounted to 109.90 ± 2 °C. Also, the refractive index in data set [3] came out at 1.3711 ± 0.0008.

`CCC(=O)O` [propanoic acid]: the mass density in data set [1] (298.15 K) was found to be 988 ± 0.53 kg/m3. Besides, the “Boiling temperature at pressure P” value in data set [2] was determined as 141.00 ± 0.5 °C. Besides, the refractive index in data set [3] worked out at 1.3811 ± 0.0008.

`CC(C)c1ccccc1` [isopropylbenzene]: the mass density in data set [1] (298.15 K) is 863.75 ± 0.85 kg/m3. The “Boiling temperature at pressure P” value in data set [2] worked out at 152.39 ± 0.5 °C. Further, in data set [3], the refractive index came to 1.4913 ± 0.0008.

Source of the values: the NIST ThermoML archive (doi:10.1016/j.fluid.2006.07.011).
